In publication PMC11672294, “The Antipsychotic Drug Aripiprazole Suppresses Colorectal Cancer by Targeting LAMP2a to Induce RNH1/miR‐99a/mTOR‐Mediated Autophagy and Apoptosis” (Advanced Science, 2024):
Structures can show the parent of a compound that is named as a salt.

These molecules were tested on HT29. Settings: 72 h, relative to DMSO, 10 µM, Relative cell viability (%).
Excerpt: To investigate the key signaling pathways and biological processes involved in CRC progression, we analyzed the National Center for Biotechnology Information Gene Expression Omnibus (GEO) dataset GSE115313, which included 42 CRC and paired normal tissues (Figure 1A). […] Next, we performed an Annexin V‐fluorescein isothiocyanate (FITC)/propidium iodide (PI) staining assay to determine the effect of aripiprazole on apoptosis in CRC cells. […] A) Principal component analysis of GEO dataset (GSE115313), which includes 42 CRC and paired normal tissues. B) Gene Ontology pathway analysis of the DEPs between CRC and paired normal tissues. […] D) Schematic diagram for identifying anticancer drugs amongst an US Food and Drug Administration‐approved small‐molecule library (616 compounds) using WST‐1 assay. E) HT29 cells were treated with the 616 drugs (10 µM) individually or with dimethyl sulfoxide for 72 h, followed by WST‐1 assay. […] J) Mice bearing HT29‐derived tumor xenografts were intragastrically administered with aripiprazole (10 or 20 mg kg^−1) once every 2 d, n = 6 mice/group. […] Bars, SD; ^* p < 0.05; ^** p < 0.01; ^*** p < 0.001; ns, no significant difference. The WST‐1 Cell Proliferation and Cytotoxicity Assay Kit (Beyotime Biotechnology, Shanghai, China) was used to measure cell viability, as described previously.^[ [10] ^] CRC cells were seeded into 96‐well plates and treated with different drug concentrations. Following that, WST‐1 was added to the plate and incubated with the cells for 2 h, at 37 °C. Absorbance at the wavelength of 450 nm was measured using an automated microplate spectrophotometer (BioTek Instruments, Winooski, VT, USA).

Row | Compound | Relative cell viability (%) [%]
1 | COc1ccc(C[C@@H]2c3cc(OC)c(OC)cc3CC[N@+]2(C)CCC(=O)OCCCCCOC(=O)CC[N@@+]2(C)CCc3cc(OC)c(OC)cc3[C@H]2Cc2ccc(OC)c(OC)c2)cc1OC [Cisatracurium Besylate] | 127.3
2 | O=C(O)Cc1ccccc1Nc1c(Cl)cccc1Cl [Diclofenac Diethylamine] | 60.68
3 | O=C(O)Cc1ccccc1Nc1c(Cl)cccc1Cl [Diclofenac Potassium] | 69.42
4 | O=C(O)Cc1ccccc1Nc1c(Cl)cccc1Cl [Diclofenac Sodium] | 111.9

Same assay, conditions: 72 h, relative to DMSO; 10 µM

Row | Compound | Relative cell viability (%) [%]
5 | CN(C)CCC(c1ccc(Cl)cc1)c1ccccn1 (stereo not shown) [Chlorpheniramine Maleate] | 102.1
6 | CN(C)CCCN1c2ccccc2Sc2ccc(Cl)cc21 [Chlorpromazine HCl] | 93.71
7 | CCCNC(=O)NS(=O)(=O)c1ccc(Cl)cc1 [Chlorpropamide] | 79.39
8 | CN(C)CC/C=C1/c2ccccc2Sc2ccc(Cl)cc21 [Chlorprothixene] | 28.39
9 | Cc1ccc2c(Cl)cc(Cl)c(O)c2n1 [Chlorquinaldol] | 41.21
10 | C[N+](C)(C)CCO [Choline Chloride] | 79.39
11 | O=C(O)c1cc(=O)c2ccccc2o1 [Chromocarb] | 81.21
12 | CCOC(=O)[C@H](CCc1ccccc1)N[C@H]1CCCN2CCC[C@@H](C(=O)O)N2C1=O [Cilazapril Monohydrate] | 112
13 | CC(C)[C@H]1C(=O)N[C@@H](CCCN=C(N)N)C(=O)NCC(=O)N[C@@H](CC(=O)O)C(=O)N[C@H](Cc2ccccc2)C(=O)N1C [Cilengitide] | 61.11
14 | COCCOC(=O)C1=C(C)NC(C)=C(C(=O)OC/C=C/c2ccccc2)C1c1cccc([N+](=O)[O-])c1 (stereo not shown) [Cilnidipine] | 69.63
15 | O=C1CCc2cc(OCCCCc3nnnn3C3CCCCC3)ccc2N1 [Cilostazol] | 80.53
16 | CN/C(=N/CCSCc1nc[nH]c1C)NC#N [Cimetidine] | 97.03
17 | C[C@@H](NCCCc1cccc(C(F)(F)F)c1)c1cccc2ccccc12 [Cinacalcet HCl] | 2.648
18 | O=C(O)c1cc(-c2ccccc2)nc2ccccc12 [Cinchophen] | 89.39
19 | COc1cc(/C=C/C(=O)N2CCN(CC(=O)N3CCCC3)CC2)cc(OC)c1OC [Cinepazide maleate] | 86.89
20 | CC(C)(Oc1ccc(C2CC2(Cl)Cl)cc1)C(=O)O (stereo not shown) [Ciprofibrate] | 34.47
21 | CN1CCC[C@@H]1CCO[C@](C)(c1ccccc1)c1ccc(Cl)cc1 [Clemastine Fumarate] | 16.95
22 | CCCC(=O)OCOC(=O)C1=C(C)NC(C)=C(C(=O)OC)C1c1cccc(Cl)c1Cl (stereo not shown) [Clevidipine Butyrate] | 112
23 | Cc1cn([C@H]2O[C@@H](CO)[C@H](O)[C@H]2F)c(=O)[nH]c1=O [Clevudine] | 97.09
24 | CC(C)(C)C(=O)C(Oc1ccc(Cl)cc1)n1ccnc1 (stereo not shown) [Climbazole] | 83.94

Row | Compound | Relative cell viability (%) [%]
25 | CCCCCCCCCCCCCCCC(=O)O[C@@H]1[C@@H](O)[C@@H](O)[C@@H]([C@H](NC(=O)[C@@H]2C[C@@H](CCC)CN2C)[C@H](C)Cl)O[C@@H]1SC [Clindamycin palmitate HCl] | 40.29
26 | Nc1nc(Cl)nc2c1ncn2[C@@H]1O[C@H](CO)[C@@H](O)[C@@H]1F [Clofarabine] | 43.15
27 | CC(C)(Oc1ccc(Cl)cc1)C(=O)O [Clofibric Acid] | 90.303
28 | Nc1cc(C(Cl)=C(Cl)Cl)c(S(N)(=O)=O)cc1S(N)(=O)=O [Clorsulon] | 49.03
29 | CC(C)c1nc(CN(C)C(=O)N[C@@H](CCN2CCOCC2)C(=O)N[C@H](CC[C@H](Cc2ccccc2)NC(=O)OCc2cncs2)Cc2ccccc2)cs1 [Cobicistat (GS-9350)] | 63.59
30 | Cc1nc2c([nH]1)-c1ccccc1N(C(=O)c1ccc(NC(=O)c3ccccc3-c3ccccc3)cc1)CC2 [Conivaptan HCl] | 109
31 | O=c1ccc2ccccc2o1 [Coumarin] | 71.21
32 | CC1(COc2ccc3c(c2)ncn3-c2ccc3cccc(N4CCC(N)CC4)c3n2)COC1 [Crenolanib (CP-868596)] | 11.17
33 | CN(C)c1ccc(C(=C2C=CC(=[N+](C)C)C=C2)c2ccc(N(C)C)cc2)cc1 [Crystal Violet] | 4.52
34 | COc1cc(/C=C/C(=O)CC(=O)/C=C/c2ccc(O)c(OC)c2)ccc1O [Curcumin] | 46.19
35 | CC1CC(OC(=O)C(O)c2ccccc2)CC(C)(C)C1 (stereo not shown) [Cyclandelate] | 65.76
36 | CN(C)CCC=C1c2ccccc2C=Cc2ccccc21 [Cyclobenzaprine HCl] | 39.39
37 | O=P1(N(CCCl)CCCl)NCCCO1 (stereo not shown) [Cyclophosphamide Monohydrate] | 130.7
38 | CN1CCC(=C2c3ccccc3C=Cc3ccccc32)CC1 [Cyproheptadine HCl] | 44.58
39 | CC(=O)O[C@]1(C(C)=O)CC[C@H]2[C@@H]3C=C(Cl)C4=CC(=O)[C@@H]5C[C@@H]5[C@]4(C)[C@H]3CC[C@@]21C [Cyproterone Acetate] | 132.9
40 | Nc1nc(N)nc(NC2CC2)n1 [Cyromazine] | 68.48
41 | NCCS [Cysteamine HCl] | 89.39
42 | CC(C)(CO)[C@@H](O)C(=O)NCCCO [D panthenol] | 121.4
43 | OC[C@@H](O)[C@@H](O)[C@H](O)[C@H](O)CO [D-Mannitol] | 114.9
44 | CCCCCCOC(=O)NC(=N)c1ccc(NCc2nc3cc(C(=O)N(CCC(=O)OCC)c4ccccn4)ccc3n2C)cc1 [Dabigatran Etexilate] | 102

Row | Compound | Relative cell viability (%) [%]
45 | CC(C)(C)c1nc(-c2cccc(NS(=O)(=O)c3c(F)cccc3F)c2F)c(-c2ccnc(N)n2)s1 [Dabrafenib (GSK2118436)] | 37.38
46 | CN(C)/N=N/c1[nH]cnc1C(N)=O [Dacarbazine] | 91.43
47 | COc1cc2ncnc(Nc3ccc(F)c(Cl)c3)c2cc1NC(=O)/C=C/CN1CCCCC1 [Dacomitinib (PF299804, PF299)] | 11.17
48 | CN(C)[C@@H](CCOc1cccc2ccccc12)c1ccccc1 [Dapoxetine HCl] | 44.92
49 | Cc1nc(Nc2ncc(C(=O)Nc3c(C)cccc3Cl)s2)cc(N2CCN(CCO)CC2)n1 [Dasatinib Monohydrate] | 20.09
50 | COc1cccc2c1C(=O)c1c(O)c3c(c(O)c1C2=O)C[C@@](O)(C(C)=O)C[C@@H]3O[C@H]1C[C@H](N)[C@H](O)[C@H](C)O1 [Daunorubicin HCl] | 12.62
51 | CNC(=O)c1ccc(Nc2ncc(C(F)(F)F)c(NCc3nccnc3N(C)S(C)(=O)=O)n2)cc1 [Defactinib (VS-6063, PF-04554878)] | 67.52
52 | CC(=O)OCC(=O)[C@@]12N=C(C)O[C@@H]1C[C@H]1[C@@H]3CCC4=CC(=O)C=C[C@]4(C)[C@H]3[C@@H](O)C[C@@]12C [Deflazacort] | 91.95
53 | CN(C)[C@@H]1C(O)=C(C(N)=O)C(=O)[C@@]2(O)C(O)=C3C(=O)c4c(O)ccc(Cl)c4[C@@H](O)[C@H]3C[C@@H]12 [Demeclocycline HCl] | 74.85
54 | C[C@H](CCC(=O)O)[C@H]1CC[C@H]2[C@@H]3CC[C@@H]4C[C@H](O)CC[C@]4(C)[C@H]3C[C@H](O)[C@]12C [Deoxycholic acid] | 90.6
55 | CC(=O)OCC(=O)[C@H]1CC[C@H]2[C@@H]3CCC4=CC(=O)CC[C@]4(C)[C@H]3CC[C@]12C [Deoxycorticosterone acetate] | 81.21
56 | Cc1cccc(Cc2c[nH]cn2)c1C [Detomidine HCl] | 118.5
57 | C[C@@H]1C[C@H]2[C@@H]3CCC4=CC(=O)C=C[C@]4(C)[C@@]3(F)[C@@H](O)C[C@]2(C)[C@@]1(O)C(=O)CO [Dexamethasone (DHAP)] | 75.86
58 | Cc1cccc([C@H](C)c2cnc[nH]2)c1C [Dexmedetomidine HCl (Precedex)] | 113.8
59 | C[C@@H](CN1CC(=O)NC(=O)C1)N1CC(=O)NC(=O)C1 [Dexrazoxane HCl (ICRF-187, ADR-529)] | 75.86
60 | OC[C@H]1OC(O)[C@H](O)[C@@H](O)[C@@H]1O (stereo partly shown) [Dextrose] | 126.7
61 | CC(=O)Oc1cccc2c1C(=O)c1c(OC(C)=O)cc(C(=O)O)cc1C2=O [Diacerein] | 73.94
62 | N#CC(c1ccc(Cl)cc1)c1c(Cl)cc(-n2ncc(=O)[nH]c2=O)cc1Cl (stereo not shown) [Diclazuril] | 219
63 | C[C@]12CCC3=C4CCC(=O)C=C4CC[C@H]3[C@@H]1CC[C@@]2(O)CC#N [Dienogest] | 96.11
64 | CC/C(=C(/CC)c1ccc(O)cc1)c1ccc(O)cc1 [Diethylstilbestrol] | 69.07
